Experimental data: patent US7276519B2, “Thieno[3,2-b]pyridine-6-carbonitriles and thieno[2,3-b]pyridine-5-carbonitriles as protein kinase inhibitors” (Wyeth, priority 2002, dated 2007)
Where “and” joins values, the source holds several entries; their conditions need not be identical. Identical values can stand only once. Like-named read-outs stand apart in the source and are kept apart here.

How the values were obtained:
[1] = system: Rat2 fibroblasts stably transformed with v-Src/Hu c-Src fusion gene; experiment: Anchorage independent Src-transformed fibroblast proliferation assay; assay type: cell-based, rat
Protocol: Anchorage Independent Src-Transformed Fibroblast Proliferation Assay Rat2 fibroblasts stably transformed with a plasmid containing a CMV promotor controlled v-Src/Hu c-Src fusion gene in which the catalytic domain of human c-Src was inserted in place of the v-Src catalytic domain in the v-Src gene are used for the measurement of src dependent suspension growth. […] Multiple entries for a given compound indicate that it was tested multiple times.

[2] = molecular target: T1, Rat2 fibroblasts stably transformed with v-Src/Hu Lck fusion gene (Homo sapiens, UniProt P06239, cells depend on it, form not given); experiment: Anchorage independent Lck-transformed fibroblast proliferation assay; assay type: cell-based, rat
T1 construct: Candidates are e.g. Schmidt-Ruppin A (P00524) or Prague C (P00526); The human Lck catalytic domain stands in place of the v-Src catalytic domain
T1 sequence (P06239 whole entry, change not shown, the tested form may be a part): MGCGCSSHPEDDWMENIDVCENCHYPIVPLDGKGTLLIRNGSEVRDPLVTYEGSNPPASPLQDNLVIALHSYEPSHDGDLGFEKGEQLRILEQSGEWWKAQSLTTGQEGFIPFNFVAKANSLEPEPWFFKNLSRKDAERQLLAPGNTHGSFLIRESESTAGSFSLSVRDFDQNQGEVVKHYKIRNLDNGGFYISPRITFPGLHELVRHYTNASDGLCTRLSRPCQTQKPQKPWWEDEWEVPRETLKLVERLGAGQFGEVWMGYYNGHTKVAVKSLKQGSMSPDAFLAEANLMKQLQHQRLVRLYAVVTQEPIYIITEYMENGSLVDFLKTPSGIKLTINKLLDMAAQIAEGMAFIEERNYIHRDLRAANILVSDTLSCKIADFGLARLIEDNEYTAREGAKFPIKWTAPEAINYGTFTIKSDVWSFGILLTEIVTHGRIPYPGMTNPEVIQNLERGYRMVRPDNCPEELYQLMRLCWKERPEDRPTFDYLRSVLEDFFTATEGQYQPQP
Protocol: Anchorage Independent Lck-Transformed Fibroblast Proliferation Assay
Rat2 fibroblasts stably transformed with a plasmid containing a CMV promotor controlled v-Src/Hu Lck fusion gene in which the catalytic domain of human Lck was inserted in place of the v-Src catalytic domain in the v-Src gene are used for the measurement of src dependent suspension growth. Ultra-low cluster plates (Costar # 3474) are seeded with 10,000 cells per well on Day 1. Compound is added in serial two-fold dilutions from 10 micromolar to 0.009 micromolar on Day 2 and MTS reagent (Promega) is added on Day 5 (100 microliters of MTS/medium mix+100 microliters of medium already on the cells and the absorbance is measured at 490 nm. The results are analyzed as follows to yield an IC50 for proliferation (micromolar units) as follow: % inhibition=(Abs490 nm sample−blank)/(Abs490 nm no cmpd control−blank)×100%. The results obtained for representative compounds of this invention are listed in Table 2. Multiple entries for a given compound indicate that it was tested multiple times.

[3] = Rattus norvegicus, Rat2, Table 3, read-out: Src Cells IC50 μM or % inhib at 10 μM (IC50 values)
[4] = Table 3, read-out: Lck Cells IC50
[5] = Table 3, read-out: Src Cells IC50 μM or % inhib at 10 μM (IC50 values)
[6] = Rattus norvegicus, Rat2, 120 h, Table 1, suspension growth, MTS readout Day 5, read-out: Src cells IC50

GI50 [2, 4] | melting point | Compound | IC50 [1, 3] | other results
0.112 µM and 0.096 µM | – | COc1cc(Nc2c(C#N)cnc3cc(-c4ccc(CN(C)C)cn4)sc23)c(Cl)cc1Cl [Example 132, 7-[(2,4-dichloro-5-methoxyphenyl)amino]-2-{5-[(dimethylamino)methyl]pyridin-2-yl}thieno[3,2-b]pyridine-6-carbonitrile] | – | –
> 10 µM | 238 to 240 °C | COc1cc(Nc2c(C#N)cnc3cc(-c4ccc(CN5CCN(c6ccccc6)CC5)cc4)sc23)c(Cl)cc1Cl [Example 113, 7-[(2,4-dichloro-5-methoxyphenyl)amino]-2-{4-[(4-phenylpiperazin-1-yl)methyl]phenyl}thieno[3,2-b]pyridine-6-carbonitrile] | – | –
> 10 µM | – | COc1cc(Nc2c(C#N)cnc3cc(C#Cc4cncn4C)sc23)c(Cl)cc1Cl [Example 127, 7-[(2,4-dichloro-5-methoxyphenyl)amino]-2-[(1-methyl-1H-imidazol-5-yl)ethynyl]thieno[3,2-b]pyridine-6-carbonitrile] | – | Src Cells IC50 μM or % inhib at 10 μM (% values) ([1]; Table 3, at 10 μM): 0% and 9%
0.463 µM and 0.331 µM and 0.341 µM | 246 to 249 °C | COc1cc(Nc2c(C#N)cnc3cc(-c4ccc(C(=O)N(C)C)cc4)sc23)c(Cl)cc1Cl [Example 136, 4-{6-cyano-7-[(2,4-dichloro-5-methoxyphenyl)amino]thieno[3,2-b]pyridin-2-yl}-N,N-dimethylbenzamide] | – | –
0.525 µM and 0.576 µM and 0.951 µM | 195 to 197 °C | COc1cc(Nc2c(C#N)cnc3cc(-c4ccc(CNCCC(C)C)cc4)sc23)c(Cl)cc1Cl [Example 121, 7-[(2,4-dichloro-5-methoxyphenyl)amino]-2-(4-{[(3-methylbutyl)amino]methyl}phenyl)thieno[3,2-b]pyridine-6-carbonitrile] | – | –
8.9 µM and > 10 µM | 176 to 179 °C | COc1cc(Nc2c(C#N)cnc3cc(-c4ccc(CN5CCN(c6ccccc6OC)CC5)cc4)sc23)c(Cl)cc1Cl [Example 120, 7-[(2,4-dichloro-5-methoxyphenyl)amino]-2-(4-{[4-(2-methoxyphenyl)piperazin-1-yl]methyl}phenyl)thieno[3,2-b]pyridine-6-carbonitrile] | – | –
> 10 µM and 5.8 µM | – | COc1cc(Nc2c(C#N)cnc3cc(-c4ccn(CCN(C)C)c4)sc23)c(Cl)cc1Cl [Example 125, 7-[(2,4-dichloro-5-methoxyphenyl)amino]-2-{1-[2-(dimethylamino)ethyl]-1H-pyrrol-3-yl}thieno[3,2-b]pyridine-6-carbonitrile] | > 10 µM | –
0.938 µM and 0.804 µM | – | COc1cc(Nc2c(C#N)cnc3cc(C#Cc4cn[nH]c4)sc23)c(Cl)cc1Cl [Example 101, 7-[(2,4-dichloro-5-methoxyphenyl)amino]-2-(1H-pyrazol-4-ylethynyl)thieno[3,2-b]pyridine-6-carbonitrile] | 0.804 µM | IC50 [1, 5]: 0.81 µM
> 10 µM | – | COc1cc(Nc2c(C#N)cnc3cc(-c4cnn(CCN5CCOCC5)c4)sc23)c(Cl)cc1Cl [Example 131, 7-[(2,4-dichloro-5-methoxyphenyl)amino]-2-[1-(2-morpholin-4-ylethyl)-1H-pyrazol-4-yl]thieno[3,2-b]pyridine-6-carbonitrile] | – | inhibition at 10 µM ([1]; Rattus norvegicus, Rat2, Table 3, at 10 μM, read-out: Src Cells IC50 μM or % inhib at 10 μM (% values)): 16%; Src Cells IC50 μM or % inhib at 10 μM (% values) ([1]; Table 3, at 10 μM): 17%
3.64 µM and 4.07 µM | – | COc1cc(Nc2c(C#N)cnc3cc(C#Cc4cnn(CCO)c4)sc23)c(Cl)cc1Cl [Example 130, 7-[(2,4-dichloro-5-methoxyphenyl)amino]-2-{[1-(2-hydroxyethyl)-1H-pyrazol-4-yl]ethynyl}thieno[3,2-b]pyridine-6-carbonitrile] | 5.59 µM | IC50 [1, 5]: 3.2 µM
1.46 µM and 1.4 µM | – | COc1cc(Nc2c(C#N)cnc3cc(-c4cn[nH]c4)sc23)c(Cl)cc1Cl [Example 129, 7-[(2,4-dichloro-5-methoxyphenyl)amino]-2-(1 H-pyrazol-4-yl)thieno[3,2-b]pyridine-6-carbonitrile] | 3.23 µM | IC50 [1, 5]: 2.19 µM

Second part, the compound before the results:

Compound | GI50 [2, 4] | melting point | IC50 [1, 3] | other results
COc1cc(Nc2c(C#N)cnc3cc(C#Cc4cnn(CCN5CCOCC5)c4)sc23)c(Cl)cc1Cl [Example 65, 7-[(2,4-Dichloro-5-methoxyphenyl)amino]-2-{[1-(2-morpholin-4-ylethyl)-1H-pyrazol-4-yl]ethynyl}thieno[3,2-b]pyridine-6-carbonitrile] | > 10 µM | – | 0.7 µM | –
COc1cc(Nc2c(C#N)cnc3cc(-c4csc(CN5CCN(C)CC5)c4)sc23)c(Cl)cc1Cl [Example 38, 7-[(2,4-Dichloro-5-methoxyphenyl)amino]-2-{5-[(4-methylpiperazin-1-yl)methyl]thien-3-yl}thieno[3,2-b]pyridine-6-carbonitrile] | – | 224 to 226 °C | – | GI50 ([2]; Table 2, suspension growth, MTS readout Day 5, read-out: Lck cells IC50): 0.17 µM and 0.18 µM and 0.13 µM
7-[(2,4-dichloro-5-methoxyphenyl)amino]-2-{4-[(4-pyrrolidin-1-ylpiperidin-1-yl)methyl]phenyl}thieno[3,2-b]pyridine-6-carbonitrile [Example 71] | 0.2 µM and 0.11 µM | – | – | IC50 [1, 5]: 1.6 µM and 0.9 µM
COc1cc(Nc2c(C#N)cnc3cc(C#Cc4cccc(CN(C)C)n4)sc23)c(Cl)cc1Cl [Example 87, 7-[(2,4-dichloro-5-methoxyphenyl)amino]-2-({6-[(dimethylamino)methyl]pyridin-2-yl}ethynyl)thieno[3,2-b]pyridine-6-carbonitrile] | 1 µM and 1.85 µM | 190 to 191 °C | – | –
COc1cc(Nc2c(C#N)cnc3cc(-c4ccc(CN5C[C@H](C)NC[C@H]5C)cc4)sc23)c(Cl)cc1Cl [Example 114, 7-[(2,4-dichloro-5-methoxyphenyl)amino]-2-(4{[(2R,5S)-2,5-dimethylpiperazin-1-I]methyl}phenyl)thieno[3,2-b]pyridine-6-carbonitrile] | 0.156 µM and 0.174 µM | – | – | –
COc1cc(Nc2c(C#N)cnc3cc(-c4ccc(C=O)o4)sc23)c(Cl)cc1Cl [Example 67, 7-[(2,4-dichloro-5-methoxyphenyl)amino]-2-(5-formyl-2-furyl)thieno[3,2-b]pyridine-6-carbonitrile] | 1.5 µM and 1.7 µM | – | 3.7 µM | –
COc1cc(Nc2c(C#N)cnc3cc(-c4ccc(CN(C)CCCN(C)C)cc4)sc23)c(Cl)cc1Cl [Example 85, 7-[(2,4-dichloro-5-methoxyphenyl)amino]-2-(4-{[[3-(dimethylamino)propyl](methyl)amino]methyl}phenyl)thieno[3,2-b]pyridine-6-carbonitrile] | 0.5 µM | – | 3.3 µM | IC50 [1, 5]: 3.16 µM
COc1cc(Nc2c(C#N)cnc3cc(-c4cc[nH]c4)sc23)c(Cl)cc1Cl [Example 90, 7-[(2,4-dichloro-5-methoxyphenyl)amino]-2-(1H-pyrrol-3-yl)thieno[3,2-b]pyridine-′6-carbonitrile] | 2.7 µM and 2.4 µM | – | – | IC50 [1, 5]: 2.6 µM and 3.1 µM
COc1cc(Nc2c(C#N)cnc3sc(C#Cc4cccnc4)cc23)c(Cl)cc1Cl [Example 52, 4-[(2,4-Dichloro-5-methoxyphenyl)amino]-2-(pyridin-3-ylethynyl)thieno[2,3-b]pyridine-5-carbonitrile] | – | 191 °C (dec.) | – | inhibition at 100 µM ([1]; Rattus norvegicus, Rat2, Table 1, at 100 μM, read-out: Src cells % inh at 100 μM): 61%
COc1cc(Nc2c(C#N)cnc3cc(-c4cccc(C=O)c4)sc23)c(Cl)cc1Cl [Example 25, 7-[(2,4-Dichloro-5-methoxyphenyl)amino]-2-(3-formylphenyl)thieno[3,2-b]pyridine-6-carbonitrile] | – | 262 to 263 °C | – | IC50 [1, 6]: 1.1 µM
COc1cc(Nc2c(C#N)cnc3sccc23)c(Cl)cc1Cl [Example 5, 4-[(2,4-Dichloro-5-methoxyphenyl)amino]thieno[2,3-b]pyridine-5-carbonitrile] | – | 197 to 199 °C | – | IC50 [1, 6]: 5.6 µM
COc1cc(Nc2c(C#N)cnc3cc(-c4ccc(C=O)s4)sc23)c(Cl)cc1Cl [Example 79, 7-[(2,4-dichloro-5-methoxyphenyl)amino]-2-(5-formylthien-2-yl)thieno[3,2-b]pyridine-6-carbonitrile] | 1.5 µM and 1.6 µM | – | 2.4 µM | IC50 [1, 5]: 2.8 µM
COc1cc(Nc2c(C#N)cnc3cc(/C=C/C(=O)N4CCN(C)CC4)sc23)c(Cl)cc1Cl [Example 56, 7-[(2,4-Dichloro-5-methoxyphenyl)amino]-2-[(1E)-3-(4-methylpiperazin-1-yl)-3-oxoprop-1-enyl]thieno[3,2-b]pyridine-6-carbonitrile] | – | 218 to 220 °C | – | IC50 [1, 6]: 3.93 µM; IC50 ([1]; Table 1, suspension growth, MTS readout Day 5, read-out: Src cells IC50): 2.2 µM
